ChEMBL document CHEMBL5034018, “LXR-Mediated Regulation of Marine-Derived Piericidins Aggravates High-Cholesterol Diet-Induced Cholesterol Metabolism Disorder in Mice” (J Med Chem, 2021)
Calls of active or inactive are those of the source. No cut-off for these calls is given here.

Experiments:
[1] = Hepatotoxicity in renal carcinoma xenografted C57BL/6 mouse assessed as liver swelling at 0.8 mg/kg, ip; format: toxicity, organism-based; conditions: in vivo
[2] = system: HepG2; assay: Down regulation of ABCB1 protein level in human HepG2 cells at 1 to 5 uM by Western blot analysis; format: functional, cell-based; conditions: dose 1-5 µM
[3] = Inhibition of FXR protein expression level in HCD-fed C57BL/6 mouse at 0.8 mg/kg, ip; format: functional; conditions: C57BL/6, ip
[4] = Induction of LDLR mRNA level in human HepG2 cells assessed as fold increase in LDLR expression at 5 uM by RT-qPCR analysis; format: functional
[5] = system: Mus musculus; assay: Induction of HCD-induced cholestasis in C57BL/6 mouse assessed as fold increase in liver LDL-cholesterol level at 0.8 mg/kg, ip; format: organism-based; conditions: in vivo
[6] = Induction of SHP mRNA level in human HepG2 cells assessed as fold increase in SHP expression at 1 uM by RT-qPCR analysis; format: functional
[7] = Induction of FXR mRNA level in human HepG2 cells assessed as fold increase in FXR expression at 1 uM by RT-qPCR analysis; format: functional
[8] = system: Mus musculus; assay: Reversal of HCD-induced LXRalpha activation in C57BL/6 mouse assessed as decrease in LXRalpha protein level at 0.8 mg/kg, ip; format: functional; set-up: scale not given: the % may be the effect or the level left
[9] = system: Mus musculus; assay: Induction of HCD-induced cholestasis in C57BL/6 mouse assessed as fold increase in liver total bile acid level at 0.8 mg/kg, ip; format: organism-based; conditions: in vivo
[10] = Toxicity in HCD-fed C57BL/6 mouse assessed as body weight loss at 0.8 mg/kg, ip measured on day 28; format: organism-based; conditions: in vivo
[11] = Drug metabolism in mouse liver assessed as PA formation at 10 mg/kg, po after 30 mins by LC-MS/MS analysis; format: ADME, organism-based; conditions: in vivo, 0.5 h
[12] = system: HepG2; assay: Induction of mitochondrial dysfunction in human HepG2 cells assessed as decrease in ILbeta level at 5 to 10 uM after 48 hrs; format: cell-based; set-up: scale not given: the % may be the effect or the level left; conditions: hepg2, 48 h, dose 5-10 µM
[13] = Drug metabolism in mouse liver assessed as PA formation at 10 mg/kg, po after 180 mins by LC-MS/MS analysis; format: ADME, organism-based; conditions: in vivo, 3 h
[14] = organism: Mus musculus; assay: Effect on bile acid homeostasis in HCD-fed C57BL/6 mouse assessed as change in Car protein expression; format: functional
[15] = system: HepG2; assay: Effect on LXRalpha mRNA level in human HepG2 cells at 1 to 5 uM by RT-qPCR analysis; format: functional, cell-based; conditions: dose 1-5 µM
[16] = Effect on bile acid homeostasis in HCD-fed C57BL/6 mouse assessed as down regulation of Oatp1 mRNA expression by RT-qPCR analysis; format: functional
[17] = Induction of Cholesterol accumulation in human HepG2 cells assessed as fold increase in LDL-cholesterol level at 5 uM after 48 hrs; format: functional
[18] = organism: Mus musculus; assay: Effect on bile acid homeostasis in HCD-fed C57BL/6 mouse assessed as change in Ppar-alpha mRNA expression by RT-qPCR analysis; format: functional
[19] = organism: Mus musculus; assay: Effect on bile acid homeostasis in HCD-fed C57BL/6 mouse assessed as change in Ugt1a1 mRNA expression by RT-qPCR analysis; format: functional
[20] = Induction of LDLR protein expression level in chow diet fed C57BL/6 mouse at 0.8 mg/kg, ip; format: functional
[21] = system: HepG2; assay: Induction of apoptosis in human HepG2 cells assessed as necrotic cells at 5 uM measured after 48 hrs by Annexin-V-FITC/propidium iodide staining based flow cytometry (reference value: 0 %); format: functional
[22] = Toxicity in renal carcinoma xenografted C57BL/6 mouse assessed as change in IL-6 level at 0.8 mg/kg, ip; format: organism-based; conditions: in vivo
[23] = Effect on bile acid homeostasis in HCD-fed C57BL/6 mouse assessed as fold increase in Mrp3 mRNA expression by RT-qPCR analysis; format: functional
[24] = system: HepG2; assay: Down regulation of LXRalpha protein level in human HepG2 cells at 1 to 5 uM by Western blot analysis; format: functional, cell-based; conditions: dose 1-5 µM
[25] = Hepatotoxicity in renal carcinoma xenografted C57BL/6 mouse assessed as effect on body weight at 0.8 mg/kg, ip; format: toxicity, organism-based; conditions: in vivo
[26] = Induction of LDLR mRNA level in human HepG2 cells assessed as fold increase in LDLR expression at 1 uM by RT-qPCR analysis; format: functional
[27] = Toxicity in renal carcinoma xenografted C57BL/6 mouse kidney assessed as change in CRE level at 0.8 mg/kg, ip; format: organism-based; conditions: in vivo
[28] = system: Mus musculus; assay: Induction of histopathological changes in HCD-fed C57BL/6 mouse assessed as swelling gallbladder size at 0.8 mg/kg, ip; format: organism-based; conditions: in vivo
[29] = system: HepG2; assay: Induction of mitochondrial membrane potential loss in human HepG2 cells assessed as intact mitochondrial membrane potential at 5 uM after 48 hrs by TMRM dye based flow cytometric analysis (reference value: 74.2%); format: cell-based; conditions: hepg2, 48 h
[30] = Hepatotoxicity in renal carcinoma xenografted C57BL/6 mouse assessed as fold increase in plasma AST at 0.8 mg/kg, ip; format: toxicity, organism-based; conditions: in vivo
[31] = Down regulation of Cyp7a1 mRNA expression level in human HepG2 cells at 1 uM by RT-qPCR analysis; format: functional
[32] = Induction of LDLR protein expression level in HCD-fed C57BL/6 mouse at 0.8 mg/kg, ip; format: functional
[33] = Down regulation of SHP mRNA level in human HepG2 cells at 1 uM by RT-qPCR analysis; format: functional
[34] = target: T1, Oxysterols receptor LXR-alpha (Homo sapiens, UniProt Q13133); assay: Binding affinity to full-length human LXRalpha by surface plasmon resonance assay
T1 sequence (Q13133 whole entry): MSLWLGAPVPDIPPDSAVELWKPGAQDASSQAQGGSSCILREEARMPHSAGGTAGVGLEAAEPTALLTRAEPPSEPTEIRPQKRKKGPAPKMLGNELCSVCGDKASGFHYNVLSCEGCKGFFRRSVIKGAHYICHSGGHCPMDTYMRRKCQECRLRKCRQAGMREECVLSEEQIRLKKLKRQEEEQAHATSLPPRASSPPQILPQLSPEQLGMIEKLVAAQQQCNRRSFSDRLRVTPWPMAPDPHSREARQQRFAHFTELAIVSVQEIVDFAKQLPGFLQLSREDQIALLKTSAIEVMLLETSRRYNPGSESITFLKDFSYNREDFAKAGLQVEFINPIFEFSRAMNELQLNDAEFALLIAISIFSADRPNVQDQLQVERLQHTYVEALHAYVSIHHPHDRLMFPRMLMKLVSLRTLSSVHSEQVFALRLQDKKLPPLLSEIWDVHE

[35] = system: HepG2; assay: Induction of mitochondrial dysfunction in human HepG2 cells assessed as decrease in TNFalpha level at 1 uM after 48 hrs; format: cell-based; set-up: scale not given: the % may be the effect or the level left; conditions: hepg2, 48 h
[36] = Down regulation of FXR mRNA level in human HepG2 cells at 5 uM by RT-qPCR analysis; format: functional
[37] = Down regulation of FXR mRNA level in human HepG2 cells at 1 uM by RT-qPCR analysis; format: functional

Structure (SMILES)	Activity [1]	inhibition in vivo at 0.8 mg/kg [3] [%]	fold change (FC) [4]	fold change (FC) [5]	Activity [8] [%]	fold change (FC) [9]	Activity [10]	Activity [14]	Activity [16] [%]	fold change (FC) [17]	Activity [18]	Activity [19]	Activity [21] [%]	Activity [22]	Activity [25]	fold change (FC) [26]	Activity [27]	Activity [28]	Activity [29] [%]	fold change (FC) [30]	other results
C/C=C(\C)[C@H](O[C@@H]1O[C@H](CO)[C@@H](O)[C@H](O)[C@H]1O)[C@H](C)/C=C(C)/C=C/C/C(C)=C/Cc1nc(OC)c(OC)c(O)c1C	Non-Toxic	31	2.2	2.9	46	2.3	Toxic	inactive	65	3.1	inactive	inactive	0	Non-Toxic	Non-Toxic	2.5	Non-Toxic	Toxic	16.6	2.2	Activity [2]: Active; fold change (FC) [6]: 3.6; fold change (FC) [7]: 3.6; Drug metabolism [11]: 14.87 ng/mL; Activity [12]: 68%; Drug metabolism [13]: Metabolite_Detected; Activity [15]: inactive; fold change (FC) [20]: 1.5; fold change (FC) [23]: 1.65; Activity [24]: Active; Activity [31]: 51%; fold change (FC) [32]: 1.6
C/C=C(\C)[C@H](O)[C@H](C)/C=C(C)/C=C/C/C(C)=C/Cc1nc(OC)c(OC)c(O)c1C [PIERICIDIN A]	Non-Toxic	79	3.1	2.2	72	2.2	Toxic	inactive	66	2.7	inactive	inactive	0	Non-Toxic	Non-Toxic	2.7	Non-Toxic	Toxic	26.4	1.6	Activity [33]: 55%; Kd [34]: 3.24 µM; Activity [35]: 54%; Activity [36]: 34%; Activity [37]: 56%; Activity [31]: 27%
